The values below come from patent US4017611A, “Control of insects with 3-hydroxymethacrylic acid methyl ester dimethylthionophosphate” (priority 1970, dated 1977).

This assay concerns adult houseflies. Description: Gas action against adult houseflies. The format is in vivo, Musca domestica (housefly). The following applies: 10 mg active substance, 2 liter glass cylinder. On the procedure: Using a pipette 10 mg of active substance were placed on a watch glass which was then covered with a wire mesh and placed in a 2 liter glass cylinder. Immediately thereafter 30 houseflies were introduced into the container which was then sealed.
A comparative test between compound 1 and PHOSDRIN (Registered Trade Mark) carried out according to this method gave the following mortality periods in minutes for 10%, 50% and 100% kill of the test animals.

With `COC(=O)C(C)=COP(=S)(OC)OC` [Compound I, 3-hydroxymethacrylic acid methyl ester dimethylthionophosphate], under “10% kill”, the “Mortality time for 10% of the houseflies” value turned out to be 5 min. Further, for the setting “50% kill”, the “Mortality time for 50% of the houseflies” value amounted to 6 min. For the setting “100% kill”, the “Mortality time for 100% of the houseflies” value was 25 min.
